We go through four compounds from US11259522B2, “Control of resistant pests” (priority 2017, dated 2022).

Test [1] relates to Aedes aegypti Liverpool strain (insecticide susceptible, LVP) L3 larvae. The test is described as follows: Mosquito larval dose response assay, LVP strain. The conditions noted are these: read-out: Lethal Concentration (LC50) LVP Strain.
Test [2] relates to Rhyzopertha dominica strain QRD1440 (resistant to OP protectants and pyrethroids). The test is described as follows: Grain protectant bioassay on treated wheat, resistant lesser grain borer. The following applies: Example 5, QRD1440, 1 ppm on wheat, replicates A, B, C.
For test [3], the system named is Aedes aegypti PRS Puerto Rican strain (synthetic pyrethroid resistant) L3 larvae. The test is described as follows: Mosquito larval dose response assay, PRS strain. The conditions noted are these: read-out: Lethal Concentration (LC50) PRS Strain.
The test system of test [4] is M. persicae (green peach aphid) insecticide-susceptible population. The test is described as follows: Leaf dip bioassay, green peach aphid, susceptible population. It counts as in vivo, Myzus persicae. How it is done:
(§1) Each colony was maintained separately on bok choi plants ([…]) within an exclusion cage in a constant temperature room at 24° C. with a photoperiod of 16:8 LD.
(§2) Laboratory bioassays were used to determine the efficacy of flavesone against M. persicae following the leaf dip method described in Moores et al. (1994, Pesticide Biochemistry and Physiology, 49, 114-120). A pilot study was first conducted which confirmed that the leaf dip method was appropriate to elicit a clear dose response for Flavocide 500EW against M. persicae, and to determine the appropriate rate range and timing of mortality assessments (scored at 24, 48, 72 & 96 hours) (data not shown).
(§3) Bioassays were then conducted to assess the efficacy of flavesone against a susceptible and resistant population of M. persicae, and to calculate LC values. The efficacy of a conventional insecticide, pirimicarb, was tested for comparison. Nine concentrations of flavesone ranging from 1×10^−3 to 10 times the proposed field rate (Table 15), and six concentrations of pirimicarb were serially diluted and tested, along with a water control, against the susceptible and resistant aphid populations. Leaf discs (25 mm diameter) cut from bok choi leaves were submerged for 1 second in the insecticide solutions, or in the water control, and placed adaxial side up on 10 g/L agar in 35 mm petri dishes. Six replicate leaf discs were prepared per treatment. Once leaves were air-dry, eight M. persicae nymphs were transferred to each insecticide-dipped leaf disc using a fine-haired paintbrush.
(§4) After aphid introduction, each petri dish was inverted onto a lid containing a 25 mm diameter filter paper to control humidity. All petri dishes were then placed into an incubator held at 18° C.±2° C. with a photoperiod of 16:8 LD cycle. At 48 & 96 hours, aphids were scored as alive (vibrant and moving freely), dead (not moving over a 5 second period), or incapacitated (inhibited movement).
(§5) Dose-response curves were generated by plotting percentage mortality against log concentration. Mortality data was analysed using a logistic regression model with random effects. Logistic regression is suited for the analysis of binary response data (i.e. dead/alive) with the random effect component of the model controlling for the non-independence of mortality scores within replicates. […] Population differences were tested by comparing the change in model deviance with and without the population factor (different regression intercepts for each population). Differences in regression slopes between populations were tested by comparing the change in model deviance with and without the population×dose interaction term.

Test [5] deals with M. persicae (green peach aphid) population resistant to carbamates and synthetic pyrethroids. The test is described as follows: Leaf dip bioassay, green peach aphid, resistant population. The conditions noted are these: Resistant population; 0.025-2500.0 mg a.i./L; 48 and 96 hours. It counts as in vivo, Myzus persicae. How it is done: as §1, §2, §3, §4, §5
[6] abbreviates: Susceptible population, 96 hours exposure.

Structures are written as SMILES. In brackets after ≈: the same amount, converted by molar mass. Several values for one entry are separate records, joined by “and”; a condition that tells them apart may be missing. Equal entries are not always repeated. Where two headings read alike, the source gives them in different places.

As for `CC1(C)[C@H](C(=O)O[C@H](C#N)c2cccc(Oc3ccccc3)c2)[C@@H]1C=C(Br)Br` [Deltamethrin, deltamethrin, reference compound], the LC50 worked out at 0.0119 mg/L (≈ 0.0236 µM) in test [1] (24 h); 0.0049 mg/L (≈ 0.0097 µM) in test [1] (48 h); 0.0037 mg/L (≈ 0.00732 µM) in test [1] (72 h); 0.0522 mg/L (≈ 0.103 µM) in test [3] (24 h); 0.0501 mg/L (≈ 0.0992 µM) in test [3] (48 h); 0.0412 mg/L (≈ 0.0816 µM) in test [3] (72 h). For the same compound, the “F1 Progeny count No. dead/total” value in test [2] (further 6 weeks) was 0/142 and 0/79 and 2/292. Besides, the “14 Day adult mortality No. dead (total)” value in test [2] was 1/50 (2×) and 0/50.
With `CCOC(=O)CC(SP(=S)(OC)OC)C(=O)OCC` (stereo not drawn) [Malathion, malathion], the LC50 was 0.11 mg/L (≈ 0.334 µM) in test [1] (24 h); 0.0389 mg/L (≈ 0.118 µM) in test [1] (48 h); 0.0298 mg/L (≈ 0.0901 µM) in test [1] (72 h); 0.291 mg/L (≈ 0.88 µM) in test [3] (24 h); 0.177 mg/L (≈ 0.535 µM) in test [3] (48 h); 0.127 mg/L (≈ 0.384 µM) in test [3] (72 h).
As for `CC1(C)C(C=C(Cl)Cl)C1C(=O)OCc1cccc(Oc2ccccc2)c1` (stereo not drawn) [Permethrin, permethrin], the LC50 came out at 0.0219 mg/L (≈ 0.056 µM) in test [1] (24 h); 0.0162 mg/L (≈ 0.0414 µM) in test [1] (48 h); 0.0166 mg/L (≈ 0.0424 µM) in test [1] (72 h); 0.164 mg/L (≈ 0.42 µM) in test [3] (24 h); 0.15 mg/L (≈ 0.385 µM) in test [3] (48 h); 0.128 mg/L (≈ 0.327 µM) in test [3] (72 h).
As for `Cc1nc(N(C)C)nc(OC(=O)N(C)C)c1C` [Pirimicarb, pirimicarb, reference compound], the LC50 in test [4] (Myzus persicae, foliar, 96 h, read-out: LC50 (mg a.i./L)) was found to be 18.5 mg/L (≈ 77.6 µM). Also, in test [4] (setting [6]), the “LC90 (mg a.i./L)” value was determined as 78.9 mg a.i./L and the “LC99 (mg a.i./L)” value worked out at 384 mg a.i./L. Besides, in test [5], the mortality observed result was “Very low mortality”.
